Reference: patent publication US20160083391A1, “TRICYCLIC PIPERAZINE DERIVATIVE” (Sunovion Pharmaceuticals Inc., priority 2014, published 2016)

Test system: PDE1
Assay: In vitro HTRF PDE1 inhibition assay
Format: biochemical
Settings: HTRF cGMP assay, 100 nM cyclic GMP, PDE (1A3, 1B or 1C) with calmodulin, 45 minutes at 37° C.; isoform of the tabulated values not stated
In short: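 Activities are given as IC50 bands (<1, 1-10, >10 μM) derived from a 665/615 nm time-resolved FRET readout after d2-cGMP/anti-cGMP cryptate detection. Enzymes PDE1A3, 1B or 1C plus calmodulin were incubated 45 min at 37 °C with 100 nM cGMP, 1% DMSO, CaCl2/MgCl2 Tris buffer pH 7.4.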

Q: With CC(C)n1ncc2c(=O)n3c(nc21)CN(Cc1ccc(Cl)c(Cl)c1)CC3 [Compound I-169, 8-(3,4-Dichlorobenzyl)-1-isopropyl-6,7,8,9-tetrahydropyrazino[1,2-a]pyrazolo[3,4-d]pyrimidin-4(1H)-one] as the compound, how does the IC50 read?
A: < 1 µM

Q: For CC(C)n1ncc2c(=O)n3c(nc21)CN(Cc1ccc2c(c1)OCO2)CC3 [Compound I-170, 8-(Benzo[d][1,3]dioxol-5-ylmethyl)-1-isopropyl-6,7,8,9-tetrahydropyrazino[1,2-a]pyrazolo[3,4-d]pyrimidin-4(1H)-one], which IC50 is on record?
A: 1 to 10 µM

Q: How did the IC50 turn out when CC(C)n1ncc2c(=O)n3c(nc21)CN(c1ccc(Cl)c(Cl)c1)CC3 [Compound I-171, 8-(3,4-Dichlorophenyl)-1-isopropyl-6,7,8,9-tetrahydropyrazino[1,2-a]pyrazolo[3,4-d]pyrimidin-4(1H)-one] was run?
A: < 1 µM

Q: How did the IC50 turn out when CCOc1cccc(N2CCn3c(nn4c(C(C)C)ncc4c3=O)C2)c1 [Compound I-173, 7-(3-Ethoxyphenyl)-3-isopropyl-8,9-dihydro-6H-imidazo[5,1-f]pyrazino[2,1-c][1,2,4]triazin-11(7H)-one] was run?
A: < 1 µM

Q: For COc1cccc(N2CCn3c(nn4c(C(C)C)ncc4c3=O)C2)c1 [Compound I-174, 3-Isopropyl-7-(3-methoxyphenyl)-8,9-dihydro-6H-imidazo[5,1-f]pyrazino[2,1-c][1,2,4]triazin-11(7H)-one], which IC50 is on record?
A: < 1 µM

Q: CC(C)c1ncc2c(=O)n3c(nn12)CN(c1ccc(Cl)cc1)CC3 [Compound I-175, 7-(4-Chlorophenyl)-3-isopropyl-8,9-dihydro-6H-imidazo[5,1-f]pyrazino[2,1-c][1,2,4]triazin-11(7H)-one] was tested. Which IC50 did it give?
A: < 1 µM

Q: For CC(C)c1ncc2c(=O)n3c(nn12)CN(c1ccc(F)cc1)CC3 [Compound I-176, 7-(4-Fluorophenyl)-3-isopropyl-8,9-dihydro-6H-imidazo[5,1-f]pyrazino[2,1-c][1,2,4]triazin-11(7H)-one], which IC50 is on record?
A: < 1 µM

Q: With CCOc1cc(N2CCn3c(nn4c(C(C)C)ncc4c3=O)C2)ccc1F [Compound I-177, 7-(3-Ethoxy-4-fluorophenyl)-3-isopropyl-8,9-dihydro-6H-imidazo[5,1-f]pyrazino[2,1-c][1,2,4]triazin-11(7H)-one] as the compound, how does the IC50 read?
A: < 1 µM

Q: Which IC50 does the source give for COc1ccc(CN2CCn3c(nn4c(C(C)C)ncc4c3=O)C2)cc1 [Compound I-178, 3-Isopropyl-7-(4-methoxybenzyl)-8,9-dihydro-6H-imidazo[5,1-f]pyrazino[2,1-c][1,2,4]triazin-11(7H)-one] here?
A: < 1 µM

Q: With CC(C)c1ncc2c(=O)n3c(nn12)CN(Cc1ccc(Cl)cc1)CC3 [Compound I-179, 7-(4-Chlorobenzyl)-3-isopropyl-8,9-dihydro-6H-imidazo[5,1-f]pyrazino[2,1-c][1,2,4]triazin-11(7H)-one] as the compound, how does the IC50 read?
A: < 1 µM

Q: For CCOc1cccc(N2CCn3c(nn4c(C5CCCC5)ncc4c3=O)C2)c1 [Compound I-180, 3-Cyclopentyl-7-(3-ethoxyphenyl)-8,9-dihydro-6H-imidazo[5,1-f]pyrazino[2,1-c][1,2,4]triazin-11(7H)-one], which IC50 is on record?
A: < 1 µM

Q: For COc1cccc(N2CCn3c(nn4c(C5CCCC5)ncc4c3=O)C2)c1 [Compound I-181, 3-Cyclopentyl-7-(3-methoxyphenyl)-8,9-dihydro-6H-imidazo[5,1-f]pyrazino[2,1-c][1,2,4]triazin-11(7H)-one], which IC50 is on record?
A: < 1 µM

Q: O=c1c2cnc(C3CCCC3)n2nc2n1CCN(c1ccc(Cl)cc1)C2 [Compound I-182, 7-(4-Chlorophenyl)-3-cyclopentyl-8,9-dihydro-6H-imidazo[5,1-f]pyrazino[2,1-c][1,2,4]triazin-11(7H)-one] was tested. Which IC50 did it give?
A: < 1 µM

Q: Which IC50 does the source give for O=c1c2cnc(C3CCCC3)n2nc2n1CCN(c1ccc(F)cc1)C2 [Compound I-183, 3-Cyclopentyl-7-(4-fluorophenyl)-8,9-dihydro-6H-imidazo[5,1-f]pyrazino[2,1-c][1,2,4]triazin-11(7H)-one] here?
A: < 1 µM

Q: CCOc1cc(N2CCn3c(nn4c(C5CCCC5)ncc4c3=O)C2)ccc1F [Compound I-184, 3-Cyclopentyl-7-(3-ethoxy-4-fluorophenyl)-8,9-dihydro-6H-imidazo[5,1-f]pyrazino[2,1-c][1,2,4]triazin-11(7H)-one] was tested. Which IC50 did it give?
A: < 1 µM

Q: O=c1c2cnc(C3CCCC3)n2nc2n1CCN(c1ccncc1)C2 [Compound I-185, 3-Cyclopentyl-7-(pyridin-4-yl)-8,9-dihydro-6H-imidazo[5,1-f]pyrazino[2,1-c][1,2,4]triazin-11(7H)-one] was tested. Which IC50 did it give?
A: 1 to 10 µM

Q: Which IC50 does the source give for Cc1ccc(CN2CCn3c(nc4c(cnn4C(C)C)c3=O)C2)cn1 [Compound I-186, 1-Isopropyl-8-((6-methylpyridin-3-yl)methyl)-6,7,8,9-tetrahydropyrazino[1,2-a]pyrazolo[3,4-d]pyrimidin-4(1H)-one] here?
A: 1 to 10 µM

Q: Cc1ccc(CN2CCn3c(nc4c(cnn4C4CCCC4)c3=O)C2)cn1 [Compound I-187, 1-Cyclopentyl-8-((6-methylpyridin-3-yl)methyl)-6,7,8,9-tetrahydropyrazino[1,2-a]pyrazolo[3,4-d]pyrimidin-4(1H)-one] was tested. Which IC50 did it give?
A: < 1 µM

Q: Cc1ccc(CN2CCn3c(nn4c(C(C)C)ncc4c3=O)C2)cn1 [Compound I-188, 3-Isopropyl-7-((6-methylpyridin-3-yl)methyl)-8,9-dihydro-6H-imidazo[5,1-f]pyrazino[2,1-c][1,2,4]triazin-11(7H)-one] was tested. Which IC50 did it give?
A: 1 to 10 µM

Q: For Cc1ccc(CN2CCn3c(nn4c(C5CCCC5)ncc4c3=O)C2)cn1 [Compound I-189, 3-Cyclopentyl-7-((6-methylpyridin-3-yl)methyl)-8,9-dihydro-6H-imidazo[5,1-f]pyrazino[2,1-c][1,2,4]triazin-11(7H)-one], which IC50 is on record?
A: < 1 µM

Q: With CC(C)n1ncc2c(=O)n3c(nc21)CN(Cc1cncnc1)CC3 [Compound I-190, 1-Isopropyl-8-(pyrimidin-5-ylmethyl)-6,7,8,9-tetrahydropyrazino[1,2-a]pyrazolo[3,4-d]pyrimidin-4(1H)-one] as the compound, how does the IC50 read?
A: > 10 µM

Q: How did the IC50 turn out when O=c1c2cnn(C3CCCC3)c2nc2n1CCN(Cc1cncnc1)C2 [Compound I-191, 1-Cyclopentyl-8-(pyrimidin-5-ylmethyl)-6,7,8,9-tetrahydropyrazino[1,2-a]pyrazolo[3,4-d]pyrimidin-4(1H)-one] was run?
A: 1 to 10 µM

Q: For CC(C)c1ncc2c(=O)n3c(nn12)CN(Cc1cncnc1)CC3 [Compound I-192, 3-Isopropyl-7-(pyrimidin-5-ylmethyl)-8,9-dihydro-6H-imidazo[5,1-f]pyrazino[2,1-c][1,2,4]triazin-11(7H)-one], which IC50 is on record?
A: > 10 µM

Q: Which IC50 does the source give for O=c1c2cnc(C3CCCC3)n2nc2n1CCN(Cc1cncnc1)C2 [Compound I-193, 3-Cyclopentyl-7-(pyrimidin-5-ylmethyl)-8,9-dihydro-6H-imidazo[5,1-f]pyrazino[2,1-c][1,2,4]triazin-11(7H)-one] here?
A: 1 to 10 µM

Q: For Cc1ncc(CN2CCn3c(nc4c(cnn4C(C)C)c3=O)C2)cn1 [Compound I-194, 1-Isopropyl-8-((2-methylpyrimidin-5-yl)methyl)-6,7,8,9-tetrahydropyrazino[1,2-a]pyrazolo[3,4-d]pyrimidin-4(1H)-one], which IC50 is on record?
A: > 10 µM

Q: How did the IC50 turn out when Cc1ncc(CN2CCn3c(nc4c(cnn4C4CCCC4)c3=O)C2)cn1 [Compound I-195, 1-Cyclopentyl-8-((2-methylpyrimidin-5-yl)methyl)-6,7,8,9-tetrahydropyrazino[1,2-a]pyrazolo[3,4-d]pyrimidin-4(1H)-one] was run?
A: 1 to 10 µM

Q: Cc1ncc(CN2CCn3c(nn4c(C(C)C)ncc4c3=O)C2)cn1 [Compound I-196, 3-Isopropyl-7-((2-methylpyrimidin-5-yl)methyl)-8,9-dihydro-6H-imidazo[5,1-f]pyrazino[2,1-c][1,2,4]triazin-11(7H)-one] was tested. Which IC50 did it give?
A: 1 to 10 µM

Q: How did the IC50 turn out when Cc1ncc(CN2CCn3c(nn4c(C5CCCC5)ncc4c3=O)C2)cn1 [Compound I-197, 3-Cyclopentyl-7-((2-methylpyrimidin-5-yl)methyl)-8,9-dihydro-6H-imidazo[5,1-f]pyrazino[2,1-c][1,2,4]triazin-11(7H)-one] was run?
A: 1 to 10 µM

Q: Which IC50 does the source give for Cc1cnc(CN2CCn3c(nc4c(cnn4C(C)C)c3=O)C2)nc1 [Compound I-198, 1-Isopropyl-8-((5-methylpyrimidin-2-yl)methyl)-6,7,8,9-tetrahydropyrazino[1,2-a]pyrazolo[3,4-d]pyrimidin-4(1H)-one] here?
A: > 10 µM

Q: For Cc1cnc(CN2CCn3c(nc4c(cnn4C4CCCC4)c3=O)C2)nc1 [Compound I-199, 1-Cyclopentyl-8-((5-methylpyrimidin-2-yl)methyl)-6,7,8,9-tetrahydropyrazino[1,2-a]pyrazolo[3,4-d]pyrimidin-4(1H)-one], which IC50 is on record?
A: 1 to 10 µM

Q: For Cc1cnc(CN2CCn3c(nn4c(C(C)C)ncc4c3=O)C2)nc1 [Compound I-200], which IC50 is on record?
A: 1 to 10 µM

Q: Which IC50 does the source give for Cc1cnc(CN2CCn3c(nn4c(C5CCCC5)ncc4c3=O)C2)nc1 [Compound I-201] here?
A: 1 to 10 µM

Q: For CC(C)n1ncc2c(=O)n3c(nc21)CN(Cc1cnccn1)CC3 [Compound I-202, 1-Isopropyl-8-(pyrazin-2-ylmethyl)-6,7,8,9-tetrahydropyrazino[1,2-a]pyrazolo[3,4-d]pyrimidin-4(1H)-one], which IC50 is on record?
A: 1 to 10 µM

Q: How did the IC50 turn out when O=c1c2cnn(C3CCCC3)c2nc2n1CCN(Cc1cnccn1)C2 [Compound I-203, 1-Cyclopentyl-8-(pyrazin-2-ylmethyl)-6,7,8,9-tetrahydropyrazino[1,2-a]pyrazolo[3,4-d]pyrimidin-4(1H)-one] was run?
A: 1 to 10 µM

Q: CC(C)c1ncc2c(=O)n3c(nn12)CN(Cc1cnccn1)CC3 [Compound I-204, 3-Isopropyl-7-(pyrazin-2-ylmethyl)-8,9-dihydro-6H-imidazo[5,1-f]pyrazino[2,1-c][1,2,4]triazin-11(7H)-one] was tested. Which IC50 did it give?
A: 1 to 10 µM

Q: With O=c1c2cnc(C3CCCC3)n2nc2n1CCN(Cc1cnccn1)C2 [Compound I-205, 3-Cyclopentyl-7-(pyrazin-2-ylmethyl)-8,9-dihydro-6H-imidazo[5,1-f]pyrazino[2,1-c][1,2,4]triazin-11(7H)-one] as the compound, how does the IC50 read?
A: < 1 µM
